This passage reports melting point, EC50 and IC50 results from patent US20230391756A1, “NEW COMPOUND” (JANSSEN PHARMACEUTICA NV, priority 2020, published 2023).

In general, melting point refers to the temperature of the solid-liquid transition. The EC50 is the concentration needed to bring the measured effect to its halfway point. Broadly, the IC50 is the concentration that inhibits the measured activity by half. A higher IC50 goes with weaker potency.

Bounds are passed on as bounds.

One data set deals with TNF. Description: PBMC assay: TNF cytokine level after LPS stimulation. Type of data set: cell-based. The note with it: human PBMCs, 100 ng/ml LPS for 6 hrs, MSD, read-out: TNFα EC50. How it is done:
(§1) Peripheral venous blood was collected from healthy individuals and human peripheral blood mononuclear cells (PBMCs) were isolated from blood by Ficoll-Histopaque (Sigma-Aldrich, A0561) density gradient centrifugation. After isolation, PBMCs were stored in liquid nitrogen for later use. Upon thawing, PBMC cell viability was determined in growth medium (RPMI media supplemented with 10% fetal bovine serum, 1% Pen-Strep and 1% L-glutamine). […] PBMCs were added at a density of 7.5×10^4 cells per well and incubated for 30 min in a 5% CO2 incubator at 37° C. LPS stimulation was performed by addition of 100 ng/ml LPS (final concentration, Invivogen, tlrl-smlps) for 6 hrs followed by collection of cellular supernatant and the analysis of IL-1β (μM) and TNF cytokines levels (μM) via MSD technology according to manufacturers' guidelines (MSD, K151A0H).

Data set [1] relates to NLRP3 inflammasome pathway (IL-1β). Nature of the data set: PBMC assay: IL-1β release after LPS stimulation. The note with it: human PBMCs, 100 ng/ml LPS for 6 hrs, MSD. Type of data set: cell-based. How it is done:
The activity of a compound according to the present invention can be assessed by in vitro methods.
as §1

Compound `CC(C)n1nc(CC(=O)Nc2nc3ccc(C#N)cc3n2C)c(=O)c2ccc(C(F)(F)F)cc21` [F-92] yielded a melting point of 242.9 °C. Also, the EC50 in the data set with TNF is above 20 µM. Besides, in data set [1], the IC50 is above 20 µM.
`CC(C)n1nc(CC(=O)Nc2ccc3nncn3n2)c(=O)c2ccc(C(C)(F)F)cc21` [F-145] returned a melting point of 214.1 °C. The EC50 in the data set on TNF was determined as 4.32 µM. In data set [1], this compound displayed an IC50 of 0.077 µM.
In the same order, the values of `O=C(Cc1nn(C2CC2)c2cc(Br)ccc2c1=O)Nc1ccc2nccn2n1` [F-66] are 244.6 °C, above 20 µM and 0.23 µM.
In turn, `CC(C)n1nc(CC(=O)Nc2ccc3nncn3c2)c(=O)c2ccc(C(F)(F)F)cc21` [F-20] came in with a melting point of 291.3 °C. For the same compound, the EC50 in the data set with TNF is above 20 µM. Also, the midpoint of inhibition in data set [1], the IC50, lay at 0.178 µM.
In the same order, the values of `CC(C)c1ccc2c(=O)c(CC(=O)Nc3ccc4nncn4c3)nn(C(C)C)c2c1` [F-31] are 181.4 °C, 11.4 µM and 0.22 µM.
On the same counts, the results for `CC(C)c1ccc2c(=O)c(CC(=O)Nc3ccc4nccn4n3)nn(C3CC3)c2c1` [F-58] are 190.1 °C, 15.8 µM and 0.37 µM.
In turn, `CC(C)n1nc(CC(=O)Nc2ccc(I)nn2)c(=O)c2ccc(C(F)(F)F)cc21` [F-85] returned a melting point of 177.9 °C. The 50% effective concentration (EC50) in the data set on TNF was above 20 µM. In addition, half-maximal inhibition in data set [1] (IC50) required 15.3 µM.
As to `CC(C)n1nc(CC(=O)Nc2nc3ncccn3n2)c(=O)c2ccc(C(F)(F)F)cc21` [F-114], the melting point is 259.7 °C. Further, the EC50 with TNF was above 20 µM. The IC50 in data set [1] stood at 0.33 µM.
On the same counts, the results for `CCn1nc(CC(=O)N[C@H]2C[C@@](C)(O)C2)c(=O)c2ccc(Cl)cc21` [F-25] are 191.5 °C, above 20 µM and 2.14 µM.
On the same counts, the results for `CC(C)n1nc(CC(=O)Nc2ccc3nncn3n2)c(=O)c2ccc(C(C)(C)F)cc21` [F-147] are 188.2 °C, 2.34 µM and 0.051 µM.
In the same order, the values of `CC(C)c1ccc2c(=O)c(CC(=O)N[C@H]3C[C@@](C)(O)C3)nn(C(C)C)c2c1` [F-26] are 201.5 °C, above 20 µM and 1.08 µM.
`CC(C)n1nc(CC(=O)Nc2ncc3ncn(C)c3n2)c(=O)c2ccc(C(F)(F)F)cc21` [F-50] yielded a melting point of 281.4 °C. For the same compound, in the data set with TNF, the EC50 is above 20 µM. Moreover, half-maximal inhibition in data set [1] (IC50) required 2.95 µM.
In the same order, the values of `CCn1nc(CC(=O)Nc2ccc3nncn3n2)c(=O)c2ccc(Cl)cc21` [F-34] are 206.5 °C, above 20 µM and 0.49 µM.
In the same order, the values of `CC(C)n1nc(CC(=O)Nc2nc3cc(F)ccc3n2C)c(=O)c2ccc(Br)cc21` [F-97] are 245.3 °C, above 20 µM and above 20 µM.
The compound `CCn1nc(CC(=O)N[C@H]2C[C@@](C)(O)C2)c(=O)c2ccc(Br)cc21` [F-5] gave a melting point of 203.3 °C. In the data set with TNF, the EC50 is above 20 µM. Moreover, 0.25 µM corresponded to half-maximal inhibition in data set [1] (IC50).
Take `CCn1nc(CC(=O)Nc2ccc3nncn3n2)c(=O)c2ccc(C3CC3)cc21` [F-141]: the melting point was found to be 223 °C. Further, the EC50 with TNF worked out at 9.77 µM. Also, the IC50 in data set [1] was found to be 0.12 µM.
`Cc1ccc2c(c1)nc(NC(=O)Cc1nn(C(C)C)c3cc(C(F)(F)F)ccc3c1=O)n2C` [F-94] returned a melting point of 217.3 °C. Also, in the data set with TNF, the 50% effective concentration (EC50) was above 20 µM. Moreover, in data set [1], the half-maximal inhibitory concentration (IC50) was above 20 µM.
As for `CC(C)n1nc(CC(=O)Nc2nc3cc(Cl)ccc3o2)c(=O)c2ccc(Br)cc21` [F-104], the melting point amounted to 199 °C. The concentration for a half-maximal effect (EC50) in the data set on TNF is above 20 µM. In data set [1], the midpoint of inhibition, the IC50, lay at 2.48 µM.
On the same counts, the results for `CC(C)n1nc(CC(=O)Nc2ccc3nncn3n2)c(=O)c2ccc(Cl)cc21` [F-30] are 241.6 °C, 16.4 µM and 0.224 µM.
On to `CCn1nc(CC(=O)Nc2ccc3nccn3n2)c(=O)c2ccc(C(F)(F)F)cc21` [F-60], for which the melting point is 193 °C. Besides, the EC50 with TNF is around 12.8 µM. This compound also registered a half-maximal inhibitory concentration (IC50) in data set [1] of 0.35 µM.
On the same counts, the results for `CCn1nc(CC(=O)Nc2cn3cnnc3cn2)c(=O)c2ccc(C(F)(F)F)cc21` [F-106] are 280.2 °C, above 20 µM and 1.45 µM.
The compound `CC(C)n1nc(CC(=O)Nc2ccc3nncn3n2)c(=O)c2ccc(C3CCC3)cc21` [F-148] yielded a melting point of 168.8 °C. Besides, the EC50 in the data set on TNF is 4.58 µM. The IC50 in data set [1] came out at 0.513 µM.
Take `CC(C)n1nc(CC(=O)Nc2nc3cc(F)ccc3n2C)c(=O)c2ccc(C(F)(F)F)cc21` [F-98]: the melting point was 222.5 °C. Also, the EC50 in the data set on TNF was above 20 µM. In data set [1], this compound had an IC50 above 20 µM.
As for `Cc1nnc2cc(NC(=O)Cc3nn(C(C)C)c4cc(C(F)(F)F)ccc4c3=O)ccn12` [F-41], the melting point was found to be 216.3 °C. In the data set on TNF, the EC50 was above 20 µM. The same compound displayed an IC50 in data set [1] of 6.35 µM.
On the same counts, the results for `CC(C)n1nc(CC(=O)Nc2ccc3nnc(Cl)n3n2)c(=O)c2ccc(C(F)(F)F)cc21` [F-132] are 248.9 °C, above 20 µM and 0.892 µM.
Compound `CC(F)(F)c1ccc2c(=O)c(CC(=O)Nc3cn4cnnc4cn3)nn(C3CC3)c2c1` [F-108] returned a melting point of 257.9 °C. Besides, the concentration for a half-maximal effect (EC50) in the data set on TNF was above 20 µM. In data set [1], this compound yielded a concentration for half-maximal inhibition (IC50) of 0.985 µM.
`CC(C)n1nc(CC(=O)Nc2ccc(C3CC3)nn2)c(=O)c2ccc(C(F)(F)F)cc21` [F-86] yielded a melting point of 185.8 °C. Besides, the EC50 in the data set with TNF was above 20 µM. In data set [1], this compound yielded an IC50 of 12.9 µM.
In the same order, the values of `CC(C)n1nc(CC(=O)Nc2ccc3c(c2)[nH]c(=O)n3C)c(=O)c2ccc(C(F)(F)F)cc21` [F-19] are 241.6 °C, 8.29 µM and 0.092 µM.
The compound `CC(C)n1nc(CC(=O)Nc2nc3ccccc3o2)c(=O)c2ccc(Br)cc21` [F-111] came in with a melting point of 203.3 °C. Further, in the data set with TNF, the 50% effective concentration (EC50) is above 20 µM. In addition, in data set [1], the IC50 was determined as 0.62 µM.
In the same order, the values of `CC(C)n1nc(CC(=O)Nc2nc3ccccc3n2C)c(=O)c2ccc(C(F)(F)F)cc21` [F-91] are 214.7 °C, above 20 µM and above 20 µM.
In the case of `CC(C)n1nc(CC(=O)Nc2ccc3nnc(C(F)F)n3c2)c(=O)c2ccc(C(F)(F)F)cc21` [F-39], the melting point stood at 226.8 °C. In addition, in the data set on TNF, the EC50 came out at 17.4 µM. This compound also returned an IC50 in data set [1] of 2.11 µM.
On the same counts, the results for `CC(C)n1nc(CC(=O)Nc2nc3ccc(Br)cc3n2C)c(=O)c2ccc(C(F)(F)F)cc21` [F-93] are 219.5 °C, above 20 µM and above 20 µM.
The compound `CC(C)n1nc(CC(=O)Nc2ccn3cnnc3c2)c(=O)c2ccc(C(F)(F)F)cc21` [F-17] had a melting point of 212.3 °C. Besides, in the data set with TNF, the EC50 is above 20 µM. In data set [1], the IC50 worked out at 5.35 µM.
In the same order, the values of `CC(F)(F)c1ccc2c(=O)c(CC(=O)Nc3ccc4nccn4n3)nn(C3CC3)c2c1` [F-64] are 188.9 °C, 7.89 µM and 0.26 µM.
In the same order, the values of `CCC(C)n1nc(CC(=O)Nc2ccc3nncn3c2)c(=O)c2ccc(C(F)(F)F)cc21` (stereo not drawn) [F-49] are 156.4 °C, above 20 µM and 3.19 µM.
In the same order, the values of `CC(C)n1nc(CC(=O)Nc2ccncn2)c(=O)c2ccc(C(F)(F)F)cc21` [F-22] are 178.3 °C, 12.2 µM and 0.464 µM.
`O=C(Cc1nn(C2CC2)c2cc(Br)ccc2c1=O)Nc1ccc2nncn2c1` [F-71] returned a melting point of 310 °C. Further, in the data set on TNF, the concentration giving a half-maximal response (EC50) is above 20 µM. Further, it took 0.105 µM to reach half-maximal inhibition in data set [1] (IC50).
For `CC(C)n1nc(CC(=O)N[C@H]2C[C@@](C)(O)C2)c(=O)c2ccc(Cl)cc21` [F-28], the melting point came out at 194.9 °C. In the data set with TNF, the concentration giving a half-maximal response (EC50) was above 20 µM. In data set [1], this compound came in with a 50% inhibitory concentration (IC50) of 0.23 µM.
Compound `CCn1nc(CC(=O)Nc2ccc3nccn3n2)c(=O)c2ccc(C3CC3)cc21` [F-62] returned a melting point of 193.4 °C. For the same compound, in the data set on TNF, the EC50 was above 20 µM. In data set [1], inhibition was half-maximal at 0.275 µM (IC50).
`CCn1nc(CC(=O)Nc2ccc3nncn3c2)c(=O)c2ccc(C3CCC3)cc21` [F-46] had a melting point of 113.1 °C. In the data set with TNF, the half-maximal effective concentration (EC50) is above 20 µM. The compound further came in with an IC50 in data set [1] of 4.52 µM.
On the same counts, the results for `CCn1nc(CC(=O)Nc2ccc3nncn3c2)c(=O)c2ccc(Br)cc21` [F-6] are 294.3 °C, above 20 µM and 0.102 µM.
On the same counts, the results for `CC(C)n1nc(CC(=O)Nc2nc3cc(C#N)ccc3n2C)c(=O)c2ccc(C(F)(F)F)cc21` [F-101] are 243.8 °C, around 16.5 µM and 15 µM.
On the same counts, the results for `Cc1ncc2n1CCC(NC(=O)Cc1nn(C(C)C)c3cc(C(F)(F)F)ccc3c1=O)C2` (stereo not drawn) [F-51] are 233.4 °C, above 20 µM and 2.48 µM.
